# Values quoted from earlier work as cited in US5686420A, “Thyrotropin-releasing hormone analogs and method of use” (Georgetown University, priority 1995, dated 1997).
# Conditions: in vivo
structure (smiles),measurement,value
"NC(=O)[C@@H]1CCCN1C(=O)[C@H](Cc1cnc[nH]1)NC(=O)[C@@H]1CCC(=O)N1 [TRH, L-pyroglutamyl-L-histidyl-L-prolineamide]",plasma half-life,4 to 5 min
